Molecules are shown by their SMILES. The source made the active and inactive calls. How the calls were made is not given here.

The subject of this data set is CCRIS mutagenicity, Ames/micronucleus/aberration tests. Briefly: CCRIS mutagenicity studies.
[1] abbreviates: Test System: AMES SALMONELLA TYPHIMURIUM, Strain/Indicator: TA97, Metabolic Activation: HAMSTER, LIVER, S-9, AROCLOR 1254 (10%), Method: PREINCUBATION
[2] abbreviates: Test System: AMES SALMONELLA TYPHIMURIUM, Strain/Indicator: TA97, Metabolic Activation: HAMSTER, LIVER, S-9, AROCLOR 1254 (30%), Method: PREINCUBATION
The mark [3] stands for this setting: Test System: AMES SALMONELLA TYPHIMURIUM, Strain/Indicator: TA97, Metabolic Activation: NONE, Method: PREINCUBATION
Where [4] appears, read: Test System: AMES SALMONELLA TYPHIMURIUM, Strain/Indicator: TA97, Metabolic Activation: RAT, LIVER, S-9, AROCLOR 1254 (10%), Method: PREINCUBATION
The mark [5] stands for this setting: Test System: AMES SALMONELLA TYPHIMURIUM, Strain/Indicator: TA97, Metabolic Activation: RAT, LIVER, S-9, AROCLOR 1254 (30%), Method: PREINCUBATION
The mark [6] stands for this setting: Test System: AMES SALMONELLA TYPHIMURIUM, Strain/Indicator: TA98, Metabolic Activation: HAMSTER, LIVER, S-9, AROCLOR 1254 (10%), Method: PREINCUBATION
Where [7] appears, read: Test System: AMES SALMONELLA TYPHIMURIUM, Strain/Indicator: TA98, Metabolic Activation: HAMSTER, LIVER, S-9, AROCLOR 1254 (30%), Method: PREINCUBATION
Where [8] appears, read: Test System: AMES SALMONELLA TYPHIMURIUM, Strain/Indicator: TA98, Metabolic Activation: NONE, Method: PREINCUBATION
Setting [9] is: Test System: AMES SALMONELLA TYPHIMURIUM, Strain/Indicator: TA98, Metabolic Activation: RAT, LIVER, S-9, AROCLOR 1254 (10%), Method: PREINCUBATION
[10] abbreviates: Test System: AMES SALMONELLA TYPHIMURIUM, Strain/Indicator: TA98, Metabolic Activation: RAT, LIVER, S-9, AROCLOR 1254 (30%), Method: PREINCUBATION
Where [11] appears, read: Test System: AMES SALMONELLA TYPHIMURIUM, Strain/Indicator: TA100, Metabolic Activation: HAMSTER, LIVER, S-9, AROCLOR 1254 (10%), Method: PREINCUBATION
[12] abbreviates: Test System: AMES SALMONELLA TYPHIMURIUM, Strain/Indicator: TA100, Metabolic Activation: HAMSTER, LIVER, S-9, AROCLOR 1254 (30%), Method: PREINCUBATION
[13] abbreviates: Test System: AMES SALMONELLA TYPHIMURIUM, Strain/Indicator: TA100, Metabolic Activation: NONE, Method: PREINCUBATION
Setting [14] is: Test System: AMES SALMONELLA TYPHIMURIUM, Strain/Indicator: TA100, Metabolic Activation: RAT, LIVER, S-9, AROCLOR 1254 (10%), Method: PREINCUBATION
Setting [15] is: Test System: AMES SALMONELLA TYPHIMURIUM, Strain/Indicator: TA100, Metabolic Activation: RAT, LIVER, S-9, AROCLOR 1254 (30%), Method: PREINCUBATION
[16] abbreviates: Test System: AMES SALMONELLA TYPHIMURIUM, Strain/Indicator: TA1535, Metabolic Activation: HAMSTER, LIVER, S-9, AROCLOR 1254 (10%), Method: PREINCUBATION
The mark [17] stands for this setting: Test System: AMES SALMONELLA TYPHIMURIUM, Strain/Indicator: TA1535, Metabolic Activation: HAMSTER, LIVER, S-9, AROCLOR 1254 (30%), Method: PREINCUBATION
Where [18] appears, read: Test System: AMES SALMONELLA TYPHIMURIUM, Strain/Indicator: TA1535, Metabolic Activation: NONE, Method: PREINCUBATION
[19] abbreviates: Test System: AMES SALMONELLA TYPHIMURIUM, Strain/Indicator: TA1535, Metabolic Activation: RAT, LIVER, S-9, AROCLOR 1254 (10%), Method: PREINCUBATION
The mark [20] stands for this setting: Test System: AMES SALMONELLA TYPHIMURIUM, Strain/Indicator: TA1535, Metabolic Activation: RAT, LIVER, S-9, AROCLOR 1254 (30%), Method: PREINCUBATION
Where [21] appears, read: Test System: AMES SALMONELLA TYPHIMURIUM, Strain/Indicator: TA98, Metabolic Activation: NONE, Method: STANDARD PLATE.

Consider `c1ccc(Nc2ccccc2)cc1`, for which the mutagenic call runs as follows: (End Point: In vitro chromosomal aberrations, Test System: Chinese hamster lung (CHL/IU) cells, Metabolic Activation: Rat, Liver, S9, Phenobarbital and 5,6-benzoflavone) “active; positive (structural changes). toxicity at 0.14 mg/ml”; under setting [1], “inactive; negative”; under setting [2], “inactive; negative”; under setting [3], “inactive; negative”; under setting [4], “inactive; negative”; under setting [5], “inactive; negative”. In addition, the mutagenic call by setting is: under setting [6], “inactive; negative”; under setting [7], “inactive; negative”; under setting [8], “inactive; negative”; under setting [9], “inactive; negative”; under setting [10], “inactive; negative”; under setting [11], “inactive; negative”. In addition, the mutagenic call is “inactive; negative” under setting [12]; “inactive; negative” under setting [13]; “inactive; negative” under setting [14]; “inactive; negative” under setting [15]; “inactive; negative” under setting [16]; “inactive; negative” under setting [17]. Besides, the mutagenic call was “inactive; negative” under setting [18], “inactive; negative” under setting [19] and “inactive; negative” under setting [20].
Regarding `O=[N+]([O-])c1ccc2ccc3cc4c(c5ccc1c2c35)CCCC4O` (configuration not stated), the mutagenic call under setting [21] was “active; positive”.
With `[Pb]`, the mutagenic call by setting is: (End Point: IN VIVO MICRONUCLEUS, Test System: PERIPHERAL BLOOD LYMPHOCYTES, Species: HUMAN, Strain/Sex: MALE, Route: PROBABLY INHALATION, Method: 72 HR CONTINUOUS TREATMENT) “active; positive”; under setting [21], “inactive; negative”; (Test System: AMES SALMONELLA TYPHIMURIUM, Strain/Indicator: TA98, Metabolic Activation: RAT, LIVER, S-9, PHENOBARBITAL, Method: STANDARD PLATE) “inactive; negative”; (Test System: AMES SALMONELLA TYPHIMURIUM, Strain/Indicator: TA102, Metabolic Activation: NONE, Method: STANDARD PLATE) “active; positive”; (Test System: AMES SALMONELLA TYPHIMURIUM, Strain/Indicator: TA102, Metabolic Activation: RAT, LIVER, S-9, PHENOBARBITAL, Method: STANDARD PLATE) “inactive; negative”; (Test System: AMES SALMONELLA TYPHIMURIUM, Strain/Indicator: TA1535, Metabolic Activation: NONE, Method: STANDARD PLATE) “inactive; negative”. Besides, the mutagenic call is, setting by setting: (Test System: AMES SALMONELLA TYPHIMURIUM, Strain/Indicator: TA1535, Metabolic Activation: RAT, LIVER, S-9, PHENOBARBITAL, Method: STANDARD PLATE) “inactive; negative”; (Test System: AMES SALMONELLA TYPHIMURIUM, Strain/Indicator: TA1537, Metabolic Activation: NONE, Method: STANDARD PLATE) “inactive; negative”; (Test System: AMES SALMONELLA TYPHIMURIUM, Strain/Indicator: TA1537, Metabolic Activation: RAT, LIVER, S-9, PHENOBARBITAL, Method: STANDARD PLATE) “inactive; negative”.
Consider `Cc1cc(Cl)ccc1O`, for which the mutagenic call runs as follows: under setting [1], “inactive; negative”; under setting [2], “inactive; negative”; under setting [3], “inactive; negative”; (Test System: AMES SALMONELLA TYPHIMURIUM, Strain/Indicator: TA97, Metabolic Activation: NONE, Method: STANDARD PLATE) “active; positive”; under setting [4], “inactive; negative”; under setting [5], “inactive; negative”. In addition, the mutagenic call by setting is: (Test System: AMES SALMONELLA TYPHIMURIUM, Strain/Indicator: TA97, Metabolic Activation: RAT, LIVER, S-9, AROCLOR 1254, Method: STANDARD PLATE) “active; positive”; under setting [6], “inactive; negative”; under setting [7], “inactive; negative”; under setting [8], “inactive; negative”; under setting [21], “inactive; negative”; under setting [9], “inactive; negative”. For the same compound, the mutagenic call is, setting by setting: under setting [10], “inactive; negative”; (Test System: AMES SALMONELLA TYPHIMURIUM, Strain/Indicator: TA98, Metabolic Activation: RAT, LIVER, S-9, AROCLOR 1254, Method: STANDARD PLATE) “active; positive”; under setting [11], “inactive; negative”; under setting [12], “inactive; negative”; under setting [13], “inactive; negative”; (Test System: AMES SALMONELLA TYPHIMURIUM, Strain/Indicator: TA100, Metabolic Activation: NONE, Method: STANDARD PLATE) “inactive; negative”. The mutagenic call runs as follows: under setting [14], “inactive; negative”; under setting [15], “inactive; negative”; (Test System: AMES SALMONELLA TYPHIMURIUM, Strain/Indicator: TA100, Metabolic Activation: RAT, LIVER, S-9, AROCLOR 1254, Method: STANDARD PLATE) “active; positive”; (Test System: AMES SALMONELLA TYPHIMURIUM, Strain/Indicator: TA104, Metabolic Activation: NONE, Method: STANDARD PLATE) “inactive; negative”; (Test System: AMES SALMONELLA TYPHIMURIUM, Strain/Indicator: TA104, Metabolic Activation: RAT, LIVER, S-9, AROCLOR 1254, Method: STANDARD PLATE) “inactive; negative”; under setting [16], “inactive; negative”. For the same compound, the mutagenic call is, setting by setting: under setting [17], “inactive; negative”; under setting [18], “inactive; negative”; under setting [19], “inactive; negative”; under setting [20], “inactive; negative”; (Test System: AMES SALMONELLA TYPHIMURIUM, Strain/Indicator: TA1537, Metabolic Activation: HAMSTER, LIVER, S-9, AROCLOR 1254 (30%), Method: PREINCUBATION) “inactive; negative”; (Test System: AMES SALMONELLA TYPHIMURIUM, Strain/Indicator: TA1537, Metabolic Activation: NONE, Method: PREINCUBATION) “inactive; negative”. Besides, the mutagenic call (Test System: AMES SALMONELLA TYPHIMURIUM, Strain/Indicator: TA1537, Metabolic Activation: RAT, LIVER, S-9, AROCLOR 1254 (30%), Method: PREINCUBATION) is “inactive; negative”.

(Values after PubChem BioAssay AID1259407 (Chemical Carcinogenesis Research Information System (CCRIS), 2018).)
